# Reference: patent US8980819B2, “4(3)-(4-hydroxy-4-methylpentyl)-3-cyclohexene-1-carbonitrile” (Kao Corporation, priority 2013, dated 2015)
# Assay: Stability in an aqueous vehicle
# Assay type: physicochemical
# Conditions: no test data printed
substance,measurement,value
4(3)-(4-hydroxy-4-methylpentyl)-3-cyclohexene-1-carbonitrile [Example 1],Stability in an aqueous vehicle,stable in an aqueous vehicle
